Experimental data published in the NIST ThermoML archive (doi:10.1021/acs.jced.7b00694).

Assay: xn = mol fraction of the nth substance listed
Settings: Gas, Buoyancy - hydrostatic balance with magnetic suspension - one sinker

[HH] [hydrogen] + N#N
Settings | mass density [kg/m3]
274.99 K, 14000 kPa, x2 = 0.95 | 162.308
274.99 K, 14998 kPa, x2 = 0.5001 | 91.878
274.99 K, 15002 kPa, x2 = 0.95 | 173.076
274.99 K, 16011 kPa, x2 = 0.95 | 183.72
274.99 K, 17006 kPa, x2 = 0.95 | 194.006
275 K, 13999 kPa, x2 = 0.9 | 153.123
275 K, 15005 kPa, x2 = 0.9 | 163.298
275 K, 15997 kPa, x2 = 0.5001 | 97.397
275 K, 16004 kPa, x2 = 0.9 | 173.22
275 K, 17000 kPa, x2 = 0.5001 | 102.851
275 K, 17005 kPa, x2 = 0.9 | 182.969
275 K, 17996 kPa, x2 = 0.5001 | 108.187
275 K, 18001 kPa, x2 = 0.95 | 204.074
275 K, 18013 kPa, x2 = 0.9 | 192.591
275 K, 19000 kPa, x2 = 0.5001 | 113.476
275 K, 19012 kPa, x2 = 0.9 | 201.918
275 K, 19017 kPa, x2 = 0.95 | 214.131
275 K, 19574 kPa, x2 = 0.5001 | 116.461
275 K, 19891 kPa, x2 = 0.9 | 209.964
275 K, 20152 kPa, x2 = 0.95 | 225.084
299.93 K, 997 kPa, x2 = 0.95 | 10.683
299.93 K, 998 kPa, x2 = 0.9 | 10.171
299.93 K, 1999 kPa, x2 = 0.9 | 20.375
299.93 K, 2984 kPa, x2 = 0.9 | 30.399
299.93 K, 3997 kPa, x2 = 0.9 | 40.678
299.93 K, 4997 kPa, x2 = 0.9 | 50.784
299.93 K, 5997 kPa, x2 = 0.9 | 60.838
299.93 K, 6998 kPa, x2 = 0.9 | 70.842
299.93 K, 7998 kPa, x2 = 0.9 | 80.755
299.93 K, 8998 kPa, x2 = 0.9 | 90.589
299.93 K, 9998 kPa, x2 = 0.9 | 100.316
299.93 K, 10998 kPa, x2 = 0.9 | 109.939
299.93 K, 11999 kPa, x2 = 0.9 | 119.448
299.93 K, 12999 kPa, x2 = 0.9 | 128.823
299.93 K, 14000 kPa, x2 = 0.9 | 138.079
299.93 K, 14998 kPa, x2 = 0.9 | 147.162
299.93 K, 16001 kPa, x2 = 0.9 | 156.149
299.93 K, 17004 kPa, x2 = 0.9 | 164.981
299.93 K, 18004 kPa, x2 = 0.9 | 173.629
299.93 K, 19002 kPa, x2 = 0.9 | 182.11
299.93 K, 19557 kPa, x2 = 0.9 | 186.761
299.94 K, 998 kPa, x2 = 0.5001 | 5.984
299.94 K, 1998 kPa, x2 = 0.5001 | 11.937
299.94 K, 1998 kPa, x2 = 0.95 | 21.43
299.94 K, 2984 kPa, x2 = 0.95 | 32.013
299.94 K, 2999 kPa, x2 = 0.5001 | 17.846
299.94 K, 3997 kPa, x2 = 0.95 | 42.862
299.94 K, 3998 kPa, x2 = 0.5001 | 23.691
299.94 K, 4997 kPa, x2 = 0.95 | 53.549
299.94 K, 4998 kPa, x2 = 0.5001 | 29.485
299.94 K, 5998 kPa, x2 = 0.5001 | 35.223
299.94 K, 5998 kPa, x2 = 0.95 | 64.189
299.94 K, 6997 kPa, x2 = 0.5001 | 40.897
299.94 K, 6999 kPa, x2 = 0.95 | 74.769
299.94 K, 7997 kPa, x2 = 0.5001 | 46.51
299.94 K, 7999 kPa, x2 = 0.95 | 85.271
299.94 K, 8996 kPa, x2 = 0.5001 | 52.057
299.94 K, 9000 kPa, x2 = 0.95 | 95.695
299.94 K, 9998 kPa, x2 = 0.5001 | 57.555
299.94 K, 10000 kPa, x2 = 0.95 | 106.004
299.94 K, 10997 kPa, x2 = 0.5001 | 62.968
299.94 K, 10999 kPa, x2 = 0.95 | 116.189
299.94 K, 11998 kPa, x2 = 0.5001 | 68.317
299.94 K, 12000 kPa, x2 = 0.95 | 126.269
299.94 K, 12994 kPa, x2 = 0.5001 | 73.577
299.94 K, 13002 kPa, x2 = 0.95 | 136.232
299.94 K, 13996 kPa, x2 = 0.5001 | 78.8
299.94 K, 14000 kPa, x2 = 0.95 | 146.008
299.94 K, 14998 kPa, x2 = 0.5001 | 83.948
299.94 K, 14999 kPa, x2 = 0.95 | 155.65
299.94 K, 15992 kPa, x2 = 0.5001 | 88.984
299.94 K, 16000 kPa, x2 = 0.95 | 165.148
299.94 K, 16992 kPa, x2 = 0.5001 | 93.982
299.94 K, 17005 kPa, x2 = 0.95 | 174.51
299.94 K, 17997 kPa, x2 = 0.5001 | 98.934
299.94 K, 18000 kPa, x2 = 0.95 | 183.626
299.94 K, 18998 kPa, x2 = 0.5001 | 103.792
299.94 K, 19003 kPa, x2 = 0.95 | 192.638
299.94 K, 19854 kPa, x2 = 0.5001 | 107.886
299.94 K, 19889 kPa, x2 = 0.95 | 200.449
324.94 K, 12002 kPa, x2 = 0.95 | 115.15
324.94 K, 14997 kPa, x2 = 0.95 | 141.813
324.94 K, 15998 kPa, x2 = 0.95 | 150.466
324.94 K, 16993 kPa, x2 = 0.95 | 158.937
324.94 K, 17986 kPa, x2 = 0.95 | 167.256
324.94 K, 19001 kPa, x2 = 0.95 | 175.603
324.94 K, 19731 kPa, x2 = 0.9 | 171.908
324.94 K, 19880 kPa, x2 = 0.95 | 182.728
324.95 K, 998 kPa, x2 = 0.5001 | 5.527
324.95 K, 998 kPa, x2 = 0.9 | 9.371
324.95 K, 998 kPa, x2 = 0.95 | 9.855
324.95 K, 1998 kPa, x2 = 0.5001 | 11.018
324.95 K, 1998 kPa, x2 = 0.95 | 19.717
324.95 K, 1999 kPa, x2 = 0.9 | 18.75
324.95 K, 2983 kPa, x2 = 0.9 | 27.94
324.95 K, 2984 kPa, x2 = 0.95 | 29.414
324.95 K, 2996 kPa, x2 = 0.5001 | 16.446
324.95 K, 3997 kPa, x2 = 0.95 | 39.338
324.95 K, 3999 kPa, x2 = 0.5001 | 21.856
324.95 K, 3999 kPa, x2 = 0.9 | 37.374
